Experiments:
[1] = molecular target: human PDE4D catalytic domain (UniProt no. Q08499 [S380-L740]) (Homo sapiens (Human), UniProt Q08499); assay: PDE4 assay (TR-FRET, cAMP hydrolysis); format: biochemical; conditions: read-out: PDE4 IC50 range
Description: The human PDE4D catalytic domain (UniProt no. Q08499 [S380-L740]) was incubated with a mixture of non-labelled cAMP (cyclic adenosine monophosphate) and fluorescein amidite (FAM) conjugated cAMP and titrated test or reference compound.
Following brief incubation the enzymatic reaction was stopped by addition of binding buffer containing nanoparticles with immobilized trivalent metal ions capable of binding 1) AMP phospho groups and 2) terbium (Tb) donor fluorophores. Subsequent excitation of the Tb donor triggered time-resolved FRET to adjacent FAM acceptor molecules resulting in light emission. In the presence of a PDE4 inhibitor, AMP generation was reduced resulting in a lower fluorescence signal. The cAMP phosphodiester is not bound by the detection system.
Results were expressed as IC50 values (nM) calculated from inhibition curves where the TR-FRET signal was normalized to Tb fluorescence intensity and the negative (DMSO vehicle) and positive (10 microM a PDE4 inhibitor reference compound) controls.

[2] = tested on: Human peripheral blood mononuclear cells (PBMC); assay: TNF-α release from LPS-stimulated PBMC; format: cell-based; conditions: Lipopolysaccharide 1 microg/ml, 18 hours, AlphaLISA, read-out: TNF-α IC50 range
Description: Human peripheral blood mononuclear cells (PBMC) were isolated from fresh buffy coats by density centrifugation using lymphoprep tubes (Medinor). Frozen PBMC's were washed in serum free assay buffer (RPMI1640 with 25 mM HEPES, 1% pen/strep, […] L glutamine, 0.5% human serum albumin) and living cells counted. Lipopolysaccharide (1 microg/ml; SIGMA) was added to the cells which were then transferred to 384 well tissue culture plates ([…]) containing titrated test compounds. The cells were incubated for 18 hours at 37° C. in serum free assay buffer and the level of TNFalpha in the supernatant was quantitated by AlphaLISA (PerkinElmer) by measuring fluorescence intensity at 615 nm.
Results were expressed as IC50 values calculated from inhibition curves using as controls the secretion in LPS stimulated wells and the secretion in cells incubated with 10 microM of a PDE4 inhibitor reference compound.

Chain of human PDE4D catalytic domain (Q08499 380-740): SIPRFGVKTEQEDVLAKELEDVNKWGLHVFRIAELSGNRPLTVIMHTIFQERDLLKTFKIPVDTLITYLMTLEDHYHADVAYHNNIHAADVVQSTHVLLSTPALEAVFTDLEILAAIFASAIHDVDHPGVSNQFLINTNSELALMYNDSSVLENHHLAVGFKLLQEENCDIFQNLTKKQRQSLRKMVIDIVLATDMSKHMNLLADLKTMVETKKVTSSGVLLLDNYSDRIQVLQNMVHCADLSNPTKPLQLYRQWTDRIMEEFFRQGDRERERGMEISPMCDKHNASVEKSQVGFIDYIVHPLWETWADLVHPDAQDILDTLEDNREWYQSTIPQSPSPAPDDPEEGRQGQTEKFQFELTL

Structure (SMILES)	IC50 [1]	IC50 [2]
CC(=O)N1CC[C@H](Nc2nc(N3CC(OC(=O)c4cscn4)C3)nc3c2[S@+](O)CC3)C1 [Example 73, [1-[4-[[(3S)-1-acetyl-pyrrolidin-3-yl]amino]-5-oxido-6,7-dihydro-thieno[3,2-d]pyrimidin-5-ium-2-yl]azetidin-3-yl]thiazole-4-carboxylate]	< 100 nM	100 to 500 nM
O=C(OC1CN(c2nc3c(c(NC4CC5(COC5)C4)n2)[S+]([O-])CC3)C1)c1cnsc1 (stereo in doubt) [Example 69, [1-[(5S)-4-(6-oxaspiro-[3.3]heptan-2-ylamino)-5-oxido-6,7-dihydrothieno-[3,2-d]pyrimidin-5-ium-2-yl]azetidin-3-yl] isothia-zole-4-carboxylate]	100 to 500 nM	> 500 nM
CN(c1nc(N2CC(OC(=O)CCS(C)(=O)=O)C2)nc2c1[S+]([O-])CC2)C1CCOCC1 (stereo not shown) [Example 44]	100 to 500 nM	100 to 500 nM
Cc1cccc(C(=O)OC2CN(c3nc4c(c(N(C)C5CCOCC5)n3)[S+]([O-])CC4)C2)c1 (stereo not shown) [Example 25, [1-[4-[methyl(tetra-hydropyran-4-yl)amino]-5-oxido-6,7-dihydro-thieno[3,2-d]pyrimidin-5-ium-2-yl]azetidin-3-yl] 3-methylbenzoate]	< 100 nM	< 100 nM
CC(C)S(=O)(=O)c1cccc(C(=O)OC2CN(c3nc4c(c(N(C)C5CCOCC5)n3)[S+](O)CC4)C2)c1 (stereo not shown) [Example 59, [1-[4-[methyl(tetra-hydropyran-4-yl)amino]-5-oxido-6,7-dihydro-thieno[3,2-d]pyrimidin-5-ium-2-yl]azetidin-3-yl] 3-isopropylsulfonyl-benzoate]	< 100 nM	< 100 nM
Cc1nc(C(=O)OC2CN(c3nc4c(c(N(C)C5CCOCC5)n3)[S+]([O-])CC4)C2)co1 (stereo not shown) [Example 20, [1-[4-[methyl(tetra-hydropyran-4-yl)amino]-5-oxido-6,7-dihydro-thieno[3,2-d]pyrimidin-5-ium-2-yl]azetidin-3-yl] 2-methyloxazole-4-carboxylate]	< 100 nM	< 100 nM
CN(c1nc(N2CC(OC(=O)c3ccns3)C2)nc2c1[S+]([O-])CC2)C1CCOCC1 (stereo not shown) [Example 22, [1-[4-[methyl(tetra-hydropyran-4-yl)amino]-5-oxido-6,7-dihydro-thieno[3,2-d]pyrimidin-5-ium-2-yl]azetidin-3-yl] isothiazole-5-carboxylate]	< 100 nM	< 100 nM
CCN(c1nc(N2CC(OC(=O)c3cnsc3)C2)nc2c1[S+]([O-])CC2)C1CCOCC1 (stereo not shown) [Example 7, [1-[4-[Ethyl(tetrahydropyran-4-yl)amino]-5-oxido-6,7-dihydrothieno[3,2-d]pyrimidin-5-ium-2-yl]azetidin-3-yl] isothiazole-4-carboxylate]	100 to 500 nM	100 to 500 nM
CN(c1nc(N2CC(OC(=O)c3cn(C)cn3)C2)nc2c1[S+]([O-])CC2)C1CCOCC1 (stereo not shown) [Example 19, [1-[4-[methyl(tetra-hydropyran-4-yl)amino]-5-oxido-6,7-dihydro-thieno[3,2-d]pyrimidin-5-ium-2-yl]azetidin-3-yl] 1-methylimidazole-4-carboxylate]	< 100 nM	< 100 nM
Cc1cc(C(=O)OC2CN(c3nc4c(c(N(C)C5CCOCC5)n3)[S+]([O-])CC4)C2)sn1 (stereo not shown) [Example 34, [1-[4-[methyl(tetra-hydropyran-4-yl)amino]-5-oxido-6,7-dihydro-thieno[3,2-d]pyrimidin-5-ium-2-yl]azetidin-3-yl] 3-methylisothiazole-5-carboxylate]	< 100 nM	< 100 nM
CN(C)C(=O)N1CCC(C(=O)OC2CN(c3nc4c(c(N(C)C5CCOCC5)n3)[S+](O)CC4)C2)CC1 (stereo not shown) [Example 55, [1-[4-[methyl(tetra-hydropyran-4-yl)amino]-5-oxido-6,7-dihydro-thieno[3,2-d]pyrimidin-5-ium-2-yl]azetidin-3-yl] 1-(dimethylcarbamoyl)-piperidine-4-carboxylate]	< 100 nM	< 100 nM
